According to BindingDB's records for doi:10.1016/s0014-2999(01)01087-1 (Janssen Research Foundation, 2001):

Legend:
D(3) dopamine receptor = D(3) dopamine receptor (Homo sapiens, UniProt P35462)
[1] = molecular target: 5-hydroxytryptamine receptor 1A (Homo sapiens, UniProt P08908)
[2] = molecular target: 5-hydroxytryptamine receptor 2A (Homo sapiens, UniProt P28223)
[3] = molecular target: Delta-type opioid receptor (Homo sapiens, UniProt P41143)
Substance-P receptor = Substance-P receptor (Homo sapiens, UniProt P25103)
[4] = molecular target: Kappa-type opioid receptor (Cavia porcellus, UniProt P41144)
[5] = molecular target: Gastrin/cholecystokinin type B receptor (Homo sapiens, UniProt P32239)
[6] = molecular target: 5-hydroxytryptamine receptor 6 (Homo sapiens, UniProt P50406)
Mu-type opioid receptor = Mu-type opioid receptor (Homo sapiens, UniProt P35372)
Mu-type opioid receptor, sequence (P35372 whole entry): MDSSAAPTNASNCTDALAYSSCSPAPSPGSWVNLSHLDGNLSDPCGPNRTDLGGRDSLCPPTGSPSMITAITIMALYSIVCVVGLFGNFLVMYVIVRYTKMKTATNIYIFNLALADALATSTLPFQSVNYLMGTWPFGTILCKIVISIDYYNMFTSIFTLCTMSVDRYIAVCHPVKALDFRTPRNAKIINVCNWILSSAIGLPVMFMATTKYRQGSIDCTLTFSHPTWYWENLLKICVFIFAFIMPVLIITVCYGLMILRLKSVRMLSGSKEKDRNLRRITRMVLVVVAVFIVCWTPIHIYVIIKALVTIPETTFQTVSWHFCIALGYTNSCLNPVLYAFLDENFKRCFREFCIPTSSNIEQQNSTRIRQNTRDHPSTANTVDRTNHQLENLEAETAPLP

[7] = molecular target: Sodium-dependent dopamine transporter (Rattus norvegicus, UniProt P23977)
Sodium-dependent dopamine transporter, sequence (P23977 whole entry): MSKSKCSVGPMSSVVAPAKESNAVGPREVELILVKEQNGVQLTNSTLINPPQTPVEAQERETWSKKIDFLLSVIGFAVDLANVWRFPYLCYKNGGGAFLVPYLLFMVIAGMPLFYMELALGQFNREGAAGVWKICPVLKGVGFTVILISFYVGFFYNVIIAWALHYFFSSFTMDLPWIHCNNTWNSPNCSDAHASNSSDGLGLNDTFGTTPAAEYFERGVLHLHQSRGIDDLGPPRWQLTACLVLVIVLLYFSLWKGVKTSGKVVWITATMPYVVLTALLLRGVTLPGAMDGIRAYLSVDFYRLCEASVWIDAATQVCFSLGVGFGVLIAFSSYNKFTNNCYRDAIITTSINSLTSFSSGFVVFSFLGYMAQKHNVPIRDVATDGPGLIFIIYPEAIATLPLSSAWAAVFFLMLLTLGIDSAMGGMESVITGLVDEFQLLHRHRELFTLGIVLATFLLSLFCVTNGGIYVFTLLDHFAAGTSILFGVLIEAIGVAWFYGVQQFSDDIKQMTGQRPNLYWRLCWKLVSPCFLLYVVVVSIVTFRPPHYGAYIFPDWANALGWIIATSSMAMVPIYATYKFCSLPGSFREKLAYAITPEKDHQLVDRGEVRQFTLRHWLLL

Histamine H1 receptor = Histamine H1 receptor (Homo sapiens, UniProt P35367)
Histamine H1 receptor, sequence (P35367 whole entry): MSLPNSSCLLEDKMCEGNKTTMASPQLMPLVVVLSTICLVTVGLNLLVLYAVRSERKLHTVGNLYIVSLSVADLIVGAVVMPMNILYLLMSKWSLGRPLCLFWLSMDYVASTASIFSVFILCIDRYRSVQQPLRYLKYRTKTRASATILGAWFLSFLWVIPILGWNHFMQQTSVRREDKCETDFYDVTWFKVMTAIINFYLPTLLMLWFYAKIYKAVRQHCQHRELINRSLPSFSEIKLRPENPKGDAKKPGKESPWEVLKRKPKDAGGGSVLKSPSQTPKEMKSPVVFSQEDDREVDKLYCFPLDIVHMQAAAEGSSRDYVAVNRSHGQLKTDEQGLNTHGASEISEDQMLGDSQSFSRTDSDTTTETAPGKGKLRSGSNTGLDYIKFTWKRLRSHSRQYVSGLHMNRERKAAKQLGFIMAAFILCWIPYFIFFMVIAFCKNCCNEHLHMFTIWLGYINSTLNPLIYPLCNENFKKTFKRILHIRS

[8] = molecular target: Beta-3 adrenergic receptor (Homo sapiens, UniProt P13945)
Beta-3 adrenergic receptor, sequence (P13945 whole entry): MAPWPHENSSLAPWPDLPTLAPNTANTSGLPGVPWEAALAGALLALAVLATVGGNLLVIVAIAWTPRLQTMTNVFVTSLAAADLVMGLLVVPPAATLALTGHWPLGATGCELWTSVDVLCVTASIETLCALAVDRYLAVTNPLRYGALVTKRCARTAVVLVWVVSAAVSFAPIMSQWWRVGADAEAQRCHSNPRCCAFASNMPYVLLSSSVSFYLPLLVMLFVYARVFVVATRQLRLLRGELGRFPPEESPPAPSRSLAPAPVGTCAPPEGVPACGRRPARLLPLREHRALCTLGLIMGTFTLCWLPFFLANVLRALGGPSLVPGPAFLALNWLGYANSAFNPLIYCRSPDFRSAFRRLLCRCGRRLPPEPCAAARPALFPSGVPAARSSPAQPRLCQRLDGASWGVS

[9] = molecular target: 5-hydroxytryptamine receptor 1D (Homo sapiens, UniProt P28221)
[10] = molecular target: 5-hydroxytryptamine receptor 7 (Homo sapiens, UniProt P34969)
5-hydroxytryptamine receptor 7, sequence (P34969 whole entry): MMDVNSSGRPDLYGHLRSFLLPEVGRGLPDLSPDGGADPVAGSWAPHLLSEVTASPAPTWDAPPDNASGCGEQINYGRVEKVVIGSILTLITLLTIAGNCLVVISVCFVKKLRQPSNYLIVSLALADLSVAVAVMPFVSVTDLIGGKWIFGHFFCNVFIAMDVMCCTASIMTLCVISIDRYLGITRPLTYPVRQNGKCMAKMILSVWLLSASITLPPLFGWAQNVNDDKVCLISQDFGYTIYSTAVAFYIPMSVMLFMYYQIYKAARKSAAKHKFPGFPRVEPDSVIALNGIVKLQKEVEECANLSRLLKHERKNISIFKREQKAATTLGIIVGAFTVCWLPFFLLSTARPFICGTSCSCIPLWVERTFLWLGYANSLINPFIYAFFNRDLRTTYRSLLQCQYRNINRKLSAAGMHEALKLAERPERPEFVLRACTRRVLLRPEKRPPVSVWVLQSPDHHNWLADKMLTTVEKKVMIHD

[11] = molecular target: 5-hydroxytryptamine receptor 1E (Homo sapiens, UniProt P28566)
D(4) dopamine receptor = D(4) dopamine receptor (Homo sapiens, UniProt P21917)
[12] = molecular target: Beta-2 adrenergic receptor (Homo sapiens, UniProt P07550)
[13] = molecular target: 5-hydroxytryptamine receptor 3A (Mus musculus, UniProt P23979)
Substance-K receptor = Substance-K receptor (Homo sapiens, UniProt P21452)
Neuromedin-K receptor = Neuromedin-K receptor (Homo sapiens, UniProt P29371)
[14] = molecular target: Alpha-1A adrenergic receptor (Homo sapiens, UniProt P35348)
[15] = molecular target: 5-hydroxytryptamine receptor 5A (Homo sapiens, UniProt P47898)
5-hydroxytryptamine receptor 5A, sequence (P47898 whole entry): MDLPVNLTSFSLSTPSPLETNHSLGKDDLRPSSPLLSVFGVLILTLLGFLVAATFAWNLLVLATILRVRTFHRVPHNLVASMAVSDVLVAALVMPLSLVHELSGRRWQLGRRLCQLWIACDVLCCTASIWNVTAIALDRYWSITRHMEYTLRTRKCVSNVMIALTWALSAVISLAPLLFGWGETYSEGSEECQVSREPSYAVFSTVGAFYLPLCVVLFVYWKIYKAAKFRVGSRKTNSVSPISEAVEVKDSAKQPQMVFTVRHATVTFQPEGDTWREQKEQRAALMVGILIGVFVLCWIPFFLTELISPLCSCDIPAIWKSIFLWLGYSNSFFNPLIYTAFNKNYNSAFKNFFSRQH

[16] = molecular target: Alpha-2B adrenergic receptor (Homo sapiens, UniProt P18089)
[17] = molecular target: Alpha-2C adrenergic receptor (Homo sapiens, UniProt P18825)
[18] = molecular target: 5-hydroxytryptamine receptor 1F (Homo sapiens, UniProt P30939)
B2 bradykinin receptor = B2 bradykinin receptor (Homo sapiens, UniProt P30411)
B2 bradykinin receptor, sequence (P30411 whole entry): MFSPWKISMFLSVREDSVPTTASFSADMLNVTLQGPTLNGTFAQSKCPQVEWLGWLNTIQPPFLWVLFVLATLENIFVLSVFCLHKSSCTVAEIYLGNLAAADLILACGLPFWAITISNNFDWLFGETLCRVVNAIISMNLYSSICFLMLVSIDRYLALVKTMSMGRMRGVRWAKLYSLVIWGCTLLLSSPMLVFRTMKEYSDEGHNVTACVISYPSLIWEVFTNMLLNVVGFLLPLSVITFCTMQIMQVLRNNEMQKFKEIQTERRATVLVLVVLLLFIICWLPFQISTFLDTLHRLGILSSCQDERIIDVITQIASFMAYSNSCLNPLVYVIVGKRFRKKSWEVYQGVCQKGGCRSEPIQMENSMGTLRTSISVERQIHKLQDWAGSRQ

[19] = molecular target: Voltage-dependent L-type calcium channel subunit alpha-1C (Rattus norvegicus, UniProt P22002)
[20] = molecular target: Gastrin/cholecystokinin type B receptor (Rattus norvegicus, UniProt P30553)
Gastrin/cholecystokinin type B receptor (Rattus norvegicus, UniProt P30553), sequence (P30553 whole entry): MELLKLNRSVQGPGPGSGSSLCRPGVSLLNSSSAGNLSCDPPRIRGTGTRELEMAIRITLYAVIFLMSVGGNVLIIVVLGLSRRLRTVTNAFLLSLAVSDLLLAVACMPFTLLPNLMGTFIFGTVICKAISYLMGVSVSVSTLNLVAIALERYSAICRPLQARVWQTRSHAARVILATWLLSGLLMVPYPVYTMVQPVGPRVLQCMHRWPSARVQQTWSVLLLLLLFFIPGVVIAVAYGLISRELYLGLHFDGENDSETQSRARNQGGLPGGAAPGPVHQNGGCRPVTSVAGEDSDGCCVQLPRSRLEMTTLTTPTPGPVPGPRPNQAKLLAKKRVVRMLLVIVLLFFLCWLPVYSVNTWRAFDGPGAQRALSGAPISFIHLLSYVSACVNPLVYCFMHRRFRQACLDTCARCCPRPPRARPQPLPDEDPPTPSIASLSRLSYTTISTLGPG

[21] = molecular target: Glutamate receptor ionotropic, NMDA 1 (Rattus norvegicus, UniProt P35439)
[22] = molecular target: Sodium- and chloride-dependent glycine transporter 1 (Rattus norvegicus, UniProt P28572)
[23] = molecular target: Sodium- and chloride-dependent glycine transporter 2 (Homo sapiens, UniProt Q9Y345)
[24] = molecular target: Cysteinyl leukotriene receptor 1 (Cavia porcellus, UniProt Q2NNR5)
Cysteinyl leukotriene receptor 1, sequence (Q2NNR5 whole entry): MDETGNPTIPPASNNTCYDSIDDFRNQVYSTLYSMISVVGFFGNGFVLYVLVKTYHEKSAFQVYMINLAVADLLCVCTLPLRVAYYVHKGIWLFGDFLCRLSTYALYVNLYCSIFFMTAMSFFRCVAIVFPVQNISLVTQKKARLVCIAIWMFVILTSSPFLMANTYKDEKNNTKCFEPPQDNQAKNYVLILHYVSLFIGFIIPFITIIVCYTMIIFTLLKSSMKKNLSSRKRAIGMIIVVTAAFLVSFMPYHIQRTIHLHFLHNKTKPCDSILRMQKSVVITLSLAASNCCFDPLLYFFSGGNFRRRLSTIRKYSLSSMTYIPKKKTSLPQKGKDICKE

[25] = molecular target: Norepinephrine transporter (Rattus norvegicus, UniProt Q9JIA2)
Neurotensin = Neurotensin (Cavia porcellus, UniProt P32560)
[26] = molecular target: Vasoactive intestinal polypeptide receptor 1 (Homo sapiens, UniProt P32241)
[27] = molecular target: Beta-1 adrenergic receptor (Homo sapiens, UniProt P08588)
[28] = molecular target: 5-hydroxytryptamine receptor 2C (Homo sapiens, UniProt P28335)
[29] = molecular target: Alpha-2A adrenergic receptor (Homo sapiens, UniProt P08913)
Alpha-2A adrenergic receptor, sequence (P08913 whole entry): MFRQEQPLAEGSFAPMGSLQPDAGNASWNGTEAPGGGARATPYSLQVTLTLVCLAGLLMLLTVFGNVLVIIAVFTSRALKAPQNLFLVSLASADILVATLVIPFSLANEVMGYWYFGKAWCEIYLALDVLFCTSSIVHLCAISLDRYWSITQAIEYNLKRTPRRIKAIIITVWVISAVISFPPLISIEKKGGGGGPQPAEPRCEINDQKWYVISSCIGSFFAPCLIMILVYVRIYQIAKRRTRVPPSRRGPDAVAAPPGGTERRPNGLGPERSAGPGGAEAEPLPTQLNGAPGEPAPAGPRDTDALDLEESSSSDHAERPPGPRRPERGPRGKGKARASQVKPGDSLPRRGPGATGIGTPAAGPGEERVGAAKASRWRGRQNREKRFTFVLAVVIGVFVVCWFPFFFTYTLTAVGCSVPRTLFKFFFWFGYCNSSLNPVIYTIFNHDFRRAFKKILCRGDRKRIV

Thromboxane A2 receptor = Thromboxane A2 receptor (Homo sapiens, UniProt P21731)

5-hydroxytryptamine receptor 1A, sequence (P08908 whole entry): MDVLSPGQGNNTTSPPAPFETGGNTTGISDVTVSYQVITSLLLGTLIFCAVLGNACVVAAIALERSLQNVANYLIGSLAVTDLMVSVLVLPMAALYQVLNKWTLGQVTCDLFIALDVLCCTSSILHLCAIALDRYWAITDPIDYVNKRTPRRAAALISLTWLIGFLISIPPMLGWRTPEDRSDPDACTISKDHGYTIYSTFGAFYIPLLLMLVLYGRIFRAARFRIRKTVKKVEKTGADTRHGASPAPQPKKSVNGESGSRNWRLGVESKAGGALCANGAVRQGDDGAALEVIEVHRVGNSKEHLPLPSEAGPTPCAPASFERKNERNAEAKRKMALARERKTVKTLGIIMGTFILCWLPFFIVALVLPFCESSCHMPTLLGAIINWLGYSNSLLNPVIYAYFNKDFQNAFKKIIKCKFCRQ

COCCCN1CCC(NC(=O)c2cc(Cl)c(N)c3c2OCC3)CC1 [4-Amino-5-chloro-2,3-dihydro-benzofuran-7-carboxylic acid [1-(3-methoxy-propyl)-piperidin-4-yl]-amide]
Ki (D(3) dopamine receptor): > 10 µM
Ki [1]: > 10 µM
Ki [2]: > 10 µM
Ki [3]: > 10 µM
Ki (Substance-P receptor): > 10 µM
Ki [4]: > 10 µM
Ki [5]: > 10 µM
Ki [6]: > 10 µM
Ki (Mu-type opioid receptor): > 10 µM
Ki [7]: > 10 µM
Ki (Histamine H1 receptor): > 10 µM
Ki [8]: > 10 µM
Ki [9]: > 10 µM
Ki [10]: > 10 µM
Ki [11]: > 10 µM
Ki (D(4) dopamine receptor): 2.35 µM
Ki [12]: > 10 µM
Ki [13]: 3.82 µM
Ki (Substance-K receptor): > 10 µM
Ki (Neuromedin-K receptor): > 10 µM
Ki [14]: > 10 µM
Ki [15]: > 10 µM
Ki [16]: > 10 µM
Ki [17]: > 10 µM
Ki [18]: > 10 µM
Ki (B2 bradykinin receptor): > 10 µM
Ki [19]: > 10 µM
Ki [20]: > 10 µM
Ki [21]: > 10 µM
Ki [22]: > 10 µM
Ki [23]: > 10 µM
Ki [24]: > 10 µM
Ki [25]: > 10 µM
Ki (Neurotensin): > 10 µM
Ki [26]: > 10 µM
Ki [27]: > 10 µM
Ki [28]: > 10 µM
Ki [29]: > 10 µM
Ki (Thromboxane A2 receptor): > 10 µM
